From PubChem BioAssay AID2060609 (Molecular Pharmacology Branch, DTP, NCI, 2025)

Test system: 855422-203-R-J1-PDC complex spheroids, viability
Assay: Anticancer human tumor 855422-203-R-J1-PDC patient-derived bladder carcinoma cell line growth inhibition [CLK]
Conditions: for IC50: curve of first compound; for viability, T/C: stronger effect = lower value
In short: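 Patient-derived tumor cells grown as complex spheroids with HUVEC endothelial cells and mesenchymal stem cells, treated with drug combinations. Concentrations descend in half-log steps from near clinical Cmax, or from 10 microM if Cmax unknown.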

[1] = second compound 0.0316 µM, first compound 0.0316 µM
[2] = second compound 0.0316 µM, first compound 0.1 µM
[3] = second compound 0.0316 µM, first compound 0.316 µM
[4] = second compound 0.0316 µM, first compound 1 µM
[5] = second compound 0.0316 µM, first compound 3.16 µM
[6] = second compound 0.0316 µM, first compound 10 µM
[7] = second compound 0.1 µM, first compound 0.0316 µM
[8] = second compound 0.1 µM, first compound 0.1 µM
[9] = second compound 0.1 µM, first compound 0.316 µM
[10] = second compound 0.1 µM, first compound 1 µM
[11] = second compound 0.1 µM, first compound 3.16 µM
[12] = second compound 0.1 µM, first compound 10 µM
[13] = second compound 0.316 µM, first compound 0.0316 µM
[14] = second compound 0.316 µM, first compound 0.1 µM
[15] = second compound 0.316 µM, first compound 0.316 µM
[16] = second compound 0.316 µM, first compound 1 µM
[17] = second compound 0.316 µM, first compound 3.16 µM
[18] = second compound 0.316 µM, first compound 10 µM
[19] = second compound 1 µM, first compound 0.0316 µM
[20] = second compound 1 µM, first compound 0.1 µM
[21] = second compound 1 µM, first compound 0.316 µM
[22] = second compound 1 µM, first compound 1 µM
[23] = second compound 1 µM, first compound 3.16 µM
[24] = second compound 1 µM, first compound 10 µM
[25] = second compound 3.16 µM, first compound 0.0316 µM
[26] = second compound 3.16 µM, first compound 0.1 µM
[27] = second compound 3.16 µM, first compound 0.316 µM
[28] = second compound 3.16 µM, first compound 1 µM
[29] = second compound 3.16 µM, first compound 3.16 µM
[30] = second compound 3.16 µM, first compound 10 µM
[31] = second compound 10 µM, first compound 0.0316 µM
[32] = second compound 10 µM, first compound 0.1 µM
[33] = second compound 10 µM, first compound 0.316 µM
[34] = second compound 10 µM, first compound 1 µM
[35] = second compound 10 µM, first compound 3.16 µM
[36] = second compound 10 µM, first compound 10 µM
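Note: spheroids exposed to drugs for seven days before readout.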
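Throughout, for viability, T/C: 100% = DMSO vehicle control wells.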

Nc1ccccc1NC(=O)c1ccc(CNC(=O)OCc2cccnc2)cc1 + CNC(=O)c1ccc(Nc2nc(OC3CCCC3)c3c(-c4ccc5nc(C)oc5c4)c[nH]c3n2)c(OC)c1
IC50 (second compound 0.0316 µM): 1120 nM | IC50 (second compound 0.1 µM): < 31.6 nM | IC50 (second compound 0.316 µM): < 31.6 nM | IC50 (second compound 1 µM): < 31.6 nM | IC50 (second compound 3.16 µM): < 31.6 nM | IC50 (second compound 10 µM): < 31.6 nM | viability, T/C [1]: 77.8% | viability, T/C [2]: 81.3% | viability, T/C [3]: 79.9% | viability, T/C [4]: 49.4% | viability, T/C [5]: 22.4% | viability, T/C [6]: 1.4% | viability, T/C [7]: 46.5% | viability, T/C [8]: 43.9% | viability, T/C [9]: 44.9% | viability, T/C [10]: 27.7% | viability, T/C [11]: 21.1% | viability, T/C [12]: 1.14% | viability, T/C [13]: 20.8% | viability, T/C [14]: 16.2% | viability, T/C [15]: 16.9% | viability, T/C [16]: 18.2% | viability, T/C [17]: 15.3% | viability, T/C [18]: 0.51% | viability, T/C [19]: 18.5% | viability, T/C [20]: 17.9% | viability, T/C [21]: 14.9% | viability, T/C [22]: 13.2% | viability, T/C [23]: 10.4% | viability, T/C [24]: 0.17% | viability, T/C [25]: 17.5% | viability, T/C [26]: 18.6% | viability, T/C [27]: 12% | viability, T/C [28]: 15.3% | viability, T/C [29]: 7.63% | viability, T/C [30]: 0.29% | viability, T/C [31]: 19.9% | viability, T/C [32]: 13.6% | viability, T/C [33]: 16.6% | viability, T/C [34]: 12.1% | viability, T/C [35]: 8.45% | viability, T/C [36]: 0.69%

COC1C=CCC(C)C(C)S(=O)(=O)NC(=O)c2ccc3c(c2)N(CC2CCC21)CC1(CCCc2cc(Cl)ccc21)CO3 (stereo unspecified) + CN1CCN(c2cc(C(=O)Nc3cc4cc(-c5cnn(C)c5)ccc4cn3)ccn2)CC1
IC50 (second compound 0.0316 µM): 5970 nM | IC50 (second compound 0.1 µM): 4810 nM | IC50 (second compound 0.316 µM): < 31.6 nM | IC50 (second compound 1 µM): < 31.6 nM | IC50 (second compound 3.16 µM): < 31.6 nM | IC50 (second compound 10 µM): < 31.6 nM | viability, T/C [1]: 89.7% | viability, T/C [2]: 104% | viability, T/C [3]: 101% | viability, T/C [4]: 105% | viability, T/C [5]: 110% | viability, T/C [6]: 7.64% | viability, T/C [7]: 73.2% | viability, T/C [8]: 79.6% | viability, T/C [9]: 78.4% | viability, T/C [10]: 77.5% | viability, T/C [11]: 74.4% | viability, T/C [12]: 7.3% | viability, T/C [13]: 5.49% | viability, T/C [14]: 8.06% | viability, T/C [15]: 8.27% | viability, T/C [16]: 8.14% | viability, T/C [17]: 9.01% | viability, T/C [18]: 3.13% | viability, T/C [19]: 0.17% | viability, T/C [20]: 0.15% | viability, T/C [21]: 0.14% | viability, T/C [22]: 0.18% | viability, T/C [23]: 0.12% | viability, T/C [24]: 0.64% | viability, T/C [25]: 0.29% | viability, T/C [26]: 0.46% | viability, T/C [27]: 0.42% | viability, T/C [28]: 0.42% | viability, T/C [29]: 0.31% | viability, T/C [30]: 0.15% | viability, T/C [31]: 0.31% | viability, T/C [32]: 0.16% | viability, T/C [33]: 0.31% | viability, T/C [34]: 0.39% | viability, T/C [35]: 0.95% | viability, T/C [36]: 0.32%

Cn1ncnc1[C@H]1c2n[nH]c(=O)c3cc(F)cc(c23)N[C@@H]1c1ccc(F)cc1 + CNC(=O)c1ccc(Nc2nc(OC3CCCC3)c3c(-c4ccc5nc(C)oc5c4)c[nH]c3n2)c(OC)c1
IC50 (second compound 0.0316 µM): > 100 nM | IC50 (second compound 0.1 µM): 36 nM | IC50 (second compound 0.316 µM): < 0.316 nM | IC50 (second compound 1 µM): < 0.316 nM | IC50 (second compound 3.16 µM): < 0.316 nM | IC50 (second compound 10 µM): < 0.316 nM | viability, T/C (second compound 0.0316 µM, first compound 0.000316 µM): 118% | viability, T/C (second compound 0.0316 µM, first compound 0.001 µM): 102% | viability, T/C (second compound 0.0316 µM, first compound 0.00316 µM): 126% | viability, T/C (second compound 0.0316 µM, first compound 0.01 µM): 109% | viability, T/C [1]: 102% | viability, T/C [2]: 110% | viability, T/C (second compound 0.1 µM, first compound 0.000316 µM): 57.1% | viability, T/C (second compound 0.1 µM, first compound 0.001 µM): 59.4% | viability, T/C (second compound 0.1 µM, first compound 0.00316 µM): 45.4% | viability, T/C (second compound 0.1 µM, first compound 0.01 µM): 66.2% | viability, T/C [7]: 43.5% | viability, T/C [8]: 47.3% | viability, T/C (second compound 0.316 µM, first compound 0.000316 µM): 19.1% | viability, T/C (second compound 0.316 µM, first compound 0.001 µM): 22.2% | viability, T/C (second compound 0.316 µM, first compound 0.00316 µM): 20.5% | viability, T/C (second compound 0.316 µM, first compound 0.01 µM): 24.7% | viability, T/C [13]: 24.2% | viability, T/C [14]: 21.5% | viability, T/C (second compound 1 µM, first compound 0.000316 µM): 21% | viability, T/C (second compound 1 µM, first compound 0.001 µM): 17.4% | viability, T/C (second compound 1 µM, first compound 0.00316 µM): 18% | viability, T/C (second compound 1 µM, first compound 0.01 µM): 18.8% | viability, T/C [19]: 18.4% | viability, T/C [20]: 18.2% | viability, T/C (second compound 3.16 µM, first compound 0.000316 µM): 17.9% | viability, T/C (second compound 3.16 µM, first compound 0.001 µM): 17.6% | viability, T/C (second compound 3.16 µM, first compound 0.00316 µM): 22.1% | viability, T/C (second compound 3.16 µM, first compound 0.01 µM): 18.5% | viability, T/C [25]: 21.7% | viability, T/C [26]: 19.3% | viability, T/C (second compound 10 µM, first compound 0.000316 µM): 20.3% | viability, T/C (second compound 10 µM, first compound 0.001 µM): 21.9% | viability, T/C (second compound 10 µM, first compound 0.00316 µM): 19.2% | viability, T/C (second compound 10 µM, first compound 0.01 µM): 22% | viability, T/C [31]: 18% | viability, T/C [32]: 15.5%
